Assay results as given in US12240862B2, “Inhibitors of peptidylarginine deiminases” (Gilead Sciences, Inc., priority 2020, dated 2025).

Target: T1, human PAD4 (Homo sapiens, UniProt Q9UM07)
T1 construct: human PAD4 (NM_012387), A2P663, was PCR amplified; His-SUMO (N, cleaved yes); made in house; host or cells: E. coli BL21(DE3)
Assay: In vitro PAD4 BAEE biochemical assay
Conditions: human PAD4, BAEE substrate; 5 nM PAD4, 2 mM calcium chloride, 3 mM BAEE; geometric mean of multiple experiments
Summary of the method: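 Ammonia release from BAEE deimination monitored by o-phthalaldehyde amine coupling (1 h, 25 °C) after EDTA stop. Final conditions: 5 nM tag-free recombinant human PAD4 (E. coli), 2 mM CaCl2, 3 mM BAEE, pH 7.6 MOPS with DTT; 30 min compound preincubation, then 2 h reaction at 25 °C.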

T1 sequence (Q9UM07 2-663): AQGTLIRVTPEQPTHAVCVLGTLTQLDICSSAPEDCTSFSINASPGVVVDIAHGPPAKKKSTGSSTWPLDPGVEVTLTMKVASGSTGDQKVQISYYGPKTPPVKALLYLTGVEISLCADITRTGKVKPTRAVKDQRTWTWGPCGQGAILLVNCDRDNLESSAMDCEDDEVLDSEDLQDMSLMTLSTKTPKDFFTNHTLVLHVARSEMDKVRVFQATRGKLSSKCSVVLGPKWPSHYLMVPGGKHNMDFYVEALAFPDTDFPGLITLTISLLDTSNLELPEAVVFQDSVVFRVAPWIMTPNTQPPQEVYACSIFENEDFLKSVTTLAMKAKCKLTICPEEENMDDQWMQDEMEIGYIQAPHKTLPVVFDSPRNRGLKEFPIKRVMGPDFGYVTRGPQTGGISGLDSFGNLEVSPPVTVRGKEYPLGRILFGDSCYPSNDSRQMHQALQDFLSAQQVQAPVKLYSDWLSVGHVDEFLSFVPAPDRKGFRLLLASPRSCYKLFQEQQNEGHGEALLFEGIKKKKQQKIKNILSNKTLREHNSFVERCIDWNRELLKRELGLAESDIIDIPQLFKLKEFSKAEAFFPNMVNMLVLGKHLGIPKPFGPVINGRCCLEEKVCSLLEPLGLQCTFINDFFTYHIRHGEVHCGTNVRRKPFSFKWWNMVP

SMILES	IC50 [nM]
CCc1ccc2cc(-c3nc4cc(C(=O)N5CCC[C@@H](N)C5)cc(OC)n4c3C3CC3)n(CC3CC3)c2n1 [Example 585, [(3~{R})-3-aminopiperidin-1-yl]-[3-cyclopropyl-2-[1-(cyclopropylmethyl)-6-ethylpyrrolo[2,3-b]pyridin-2-yl]-5-methoxyimidazo [1,2-a]pyridin-7-yl]methanone]	174
COc1cc(C(=O)N2CCC[C@@H](N)C2)cc2nc(-c3cc4ccc([C@@H](C)NS(C)(=O)=O)nc4n3CC3CC3)c(C)n12 [Example 268, ~{N}-[(1~{R})-1-[2-[7-[(3~{R})-3-aminopiperidine-1-carbonyl]-5-methoxy-3-methylimidazo [1,2-a]pyridin-2-yl]-1-(cyclopropylmethyl)pyrrolo [2,3-b]pyridin-6-yl]ethyl]methanesulfonamide]	257
CC(C)c1c(-c2cc3ccc(N(C(F)F)S(C)(=O)=O)nc3n2CC2CC2)nc2cc(C(=O)N3CCC[C@@H](N)C3)ccn12 [Example 433, ~{N}-[2-[7-[(3~{R})-3-aminopiperidine-1-carbonyl]-3-propan-2-ylimidazo[1,2-a]pyridin-2-yl]-1-(cyclopropylmethyl)pyrrolo [2,3-b]pyridin-6-yl]-~{N}-(difluoromethyl) methanesulfonamide]	7040
COc1cc(C(=O)N2CCC[C@@H](N)C2)cc2nc(-c3cc4ccc(N(C(F)F)S(=O)(=O)C5COC5)nc4n3CC3CC3)c(C)n12 [Example 478, ~{N}-[2-[7-[(3~{R})-3-aminopiperidine-1-carbonyl]-5-methoxy-3-methylimidazo[1,2-a]pyridin-2-yl]-1-(cyclopropylmethyl)pyrrolo [2,3-b]pyridin-6-yl]-~{N}-(difluoromethyl)oxetane-3-sulfonamide]	236
COc1cc(C(=O)N2CCC[C@@H](N)C2)cc2nc(-c3cc4ccc([C@@H](C)N5CCOC5=O)nc4n3CC3CC3)c(C)n12 [Example 278, 3-[(1~{R})-1-[2-[7-[(3~{R})-3-aminopiperidine-1-carbonyl]-5-methoxy-3-methylimidazo [1,2-a]pyridin-2-yl]-1-(cyclopropylmethyl)pyrrolo [2,3-b]pyridin-6-yl]ethyl]-1,3-oxazolidin-2-one]	144
COc1cc(C(=O)N[C@H]2CNC[C@H](F)C2)cc2nc(-c3cc4ccc(N(C(F)F)S(C)(=O)=O)nc4n3CC3CC3)c(C)n12 [Example 306, 2-[1-(cyclopropylmethyl)-6-[difluoromethyl (methylsulfonyl)amino]pyrrolo[2,3-b]pyridin-2-yl]-~{N}-[(3~{R},5~{R})-5-fluoropiperidin-3-yl]-5-methoxy-3-methylimidazo [1,2-a]pyridine-7-carboxamide]	1610
CCC1CC[C@@H]2CCN(C(=O)c3cc(OC)n4c(C)c(-c5cc6ccc([C@@H](C)NC(=O)C78CC(F)(C7)C8)nc6n5CC5CC5)nc4c3)C[C@@H]2N1 (some centres unmarked) [Example 12, ~{N}-[(1~{R})-1-[2-[7-[(4~{a}~{R}, 8~{a}~{R})-2-ethyl-2,3,4,4~{a}, 5,6,8,8~{a}-octahydro-1~{H}-1,7-naphthyridine-7-carbonyl]-5-methoxy-3-methylimidazo[1,2-a]pyridin-2-yl]-1-(cyclopropylmethyl)pyrrolo[2,3-b]pyridin-6-yl]ethyl]-3-fluorobicyclo[1.1.1] pentane-1-carboxamide]	29100
COc1cc(C(=O)N2C[C@H]3CC[C@@H]2[C@H](N)C3)cc2nc(-c3cc4ccc(N(C(F)F)S(C)(=O)=O)nc4n3CC3CC3)c(C)n12 [Example 381, ~{N}-[2-[7-[(1~{R},4~{S}, 6~{R})-6-amino-2-azabicyclo[2.2.2]octane-2-carbonyl]-5-methoxy-3-methylimidazo[1,2-a]pyridin-2-yl]-1-(cyclopropylmethyl)pyrrolo [2,3-b]pyridin-6-yl]-~{N}-(difluoromethyl) methanesulfonamide]	538

Further lines, results first:

IC50 [nM]	SMILES
80.7	COc1cc(C(=O)N2[C@H]3CC[C@@H]2[C@H](N)C3)cc2nc(-c3cc4ccc([C@@H](C)NC(=O)N5CCC(F)(F)C5)nc4n3CC3CC3)c(C)n12 [Example 243, ~{N}-[(1~{R})-1-[2-[7-[(1~{R},2~{R},4~{S})-2-amino-7-azabicyclo[2.2.1]heptane-7-carbonyl]-5-methoxy-3-methylimidazo [1,2-a]pyridin-2-yl]-1-(cyclopropylmethyl)pyrrolo [2,3-b]pyridin-6-yl]ethyl]-3,3-difluoropyrrolidine-1-carboxamide]
108	COc1cc(C(=O)N2[C@H]3CC[C@@H]2[C@H](N)C3)cc2nc(-c3cc4ccc(C(C)CN5CCOCC5)nc4n3CC3CC3)c(C)n12 (some centres unmarked) [Example 543, [(1~{R},2~{R},4~{S})-2-amino-7-azabicyclo [2.2.1]heptan-7-yl]-[2-[1-(cyclopropylmethyl)-6-(1-morpholin-4-ylpropan-2-yl)pyrrolo[2,3-b]pyridin-2-yl]-5-methoxy-3-methylimidazo [1,2-a]pyridin-7-yl] methanone]
63.6	COc1cc(C(=O)N2[C@H]3CC[C@@H]2[C@H](N)C3)cc2nc(-c3cc4ccc([C@@H](C)NC(=O)N5CCN(C)CC5)nc4n3CC3CC3)c(C)n12 [Example 235, ~{N}-[(1~{R})-1-[2-[7-[(1~{R},2~{R},4~{S})-2-amino-7-azabicyclo[2.2.1]heptane-7-carbonyl]-5-methoxy-3-methylimidazo [1,2-a]pyridin-2-yl]-1-(cyclopropylmethyl)pyrrolo [2,3-b]pyridin-6-yl]ethyl]-4-methylpiperazine-1-carboxamide]
108	COc1cc(C(=O)N2[C@H]3CC[C@@H]2[C@H](N)C3)cc2nc(-c3cc4ccc([C@@H](C)NC(=O)NC5COC5)nc4n3CC3CC3)c(C)n12 [Example 229, 1-[(1~{R})-1-[2-[7-[(1~{R},2~{R},4~{S})-2-amino-7-azabicyclo[2.2.1]heptane-7-carbonyl]-5-methoxy-3-methylimidazo [1,2-a]pyridin-2-yl]-1-(cyclopropylmethyl)pyrrolo [2,3-b]pyridin-6-yl]ethyl]-3-(oxetan-3-yl)urea]
78.5	COc1cc(C(=O)N2[C@H]3CC[C@@H]2[C@H](N)C3)cc2nc(-c3cc4ccc([C@@H](C)NC(=O)c5cccc(C#N)c5)nc4n3CC3CC3)c(C)n12 [Example 122, ~{N}-[(1~{R})-1-[2-[7-[(1~{R},2~{R},4~{S})-2-amino-7-azabicyclo[2.2.1]heptane-7-carbonyl]-5-methoxy-3-methylimidazo [1,2-a]pyridin-2-yl]-1-(cyclopropylmethyl)pyrrolo [2,3-b]pyridin-6-yl]ethyl]-3-cyanobenzamide]
81.8	COc1cc(C(=O)N2[C@H]3CC[C@@H]2[C@H](N)C3)cc2nc(-c3cc4ccc(C(C)C(N)=O)nc4n3CC3CC3)c(C)n12 (some centres unmarked) [Example 545]
135	COc1cc(C(=O)N2CCC[C@@H](N)C2)cc2nc(-c3cc4ccc([C@@H](C)NC(=O)N(C)C)nc4n3CC3CC3)c(C)n12 [Example 253, 3-[(1~{R})-1-[2-[7-[(3~{R})-3-aminopiperidine-1-carbonyl]-5-methoxy-3-methylimidazo[1,2-a]pyridin-2-yl]-1-(cyclopropylmethyl)pyrrolo [2,3-b]pyridin-6-yl]ethyl]-1,1-dimethylurea]
30.6	COc1cc(C(=O)N2[C@H]3CC[C@@H]2[C@H](N)C3)cc2nc(-c3cc4ccc([C@@H](C)NC(=O)C5(O)CC5)nc4n3CC3CC3)c(C)n12 [Example 97, ~{N}-[(1~{R})-1-[2-[7-[(1~{R},2~{R},4~{S})-2-amino-7-azabicyclo[2.2.1]heptane-7-carbonyl]-5-methoxy-3-methylimidazo [1,2-a]pyridin-2-yl]-1-(cyclopropylmethyl)pyrrolo [2,3-b]pyridin-6-yl]ethyl]-1-hydroxycyclopropane-1-carboxamide]
40.9	COc1cc(C(=O)N2[C@H]3CC[C@@H]2[C@H](N)C3)cc2nc(-c3cc4ccc(N5CCN(Cc6cccnc6)CCS5(=O)=O)nc4n3CC3CC3)c(C)n12 [Example 442, [(1~{R},2~{R},4~{S})-2-amino-7-azabicyclo [2.2.1]heptan-7-yl]-[2-[1-(cyclopropylmethyl)-6-[1,1-dioxo-5-(pyridin-3-ylmethyl)-1,2,5-thiadiazepan-2-yl]pyrrolo [2,3-b]pyridin-2-yl]-5-methoxy-3-methylimidazo [1,2-a]pyridin-7-yl] methanone]
140	COc1cc(C(=O)N2CCC[C@@H](N)C2)cc2nc(-c3cc4ccc([C@H](C)CC(=O)N(C)C)nc4n3CC3CC3)c(C)n12 [Example 534, (3~{R})-3-[2-[7-[(3~{R})-3-aminopiperidine-1-carbonyl]-5-methoxy-3-methylimidazo[1,2-a]pyridin-2-yl]-1-(cyclopropylmethyl)pyrrolo[2,3-b]pyridin-6-yl]-~{N},~{N}-dimethylbutanamide]
70	COc1cc(C(=O)N2[C@H]3CC[C@@H]2[C@H](N)C3)cc2nc(-c3cc4ccc([C@@H](C)NC(=O)N5CC(C)(C(=O)O)C5)nc4n3CC3CC3)c(C)n12 [Example 230, 1-[[(1~{R})-1-[2-[7-[(1~{R},2~{R},4~{S})-2-amino-7-azabicyclo[2.2.1]heptane-7-carbonyl]-5-methoxy-3-methylimidazo [1,2-a]pyridin-2-yl]-1-(cyclopropylmethyl)pyrrolo [2,3-b]pyridin-6-yl]ethyl]carbamoyl]-3-methylazetidine-3-carboxylic acid]
133	COc1cc(C(=O)N2[C@H]3CC[C@@H]2[C@H](N)C3)cc2nc(-c3cc4ccc(N5[C@H](C)CCCS5(=O)=O)nc4n3CC3CC3)c(C)n12 [Example 463, [(1~{R},2~{R},4~{S})-2-amino-7-azabicyclo [2.2.1]heptan-7-yl]-[2-[1-(cyclopropylmethyl)-6-[(3~{R})-3-methyl-1,1-dioxothiazinan-2-yl]pyrrolo[2,3-b]pyridin-2-yl]-5-methoxy-3-methylimidazo [1,2-a]pyridin-7-yl] methanone]
